Reference: article PMC10033419, “Blocking NS3–NS4B interaction inhibits dengue virus in non-human primates” (Nature, 2023)
Values joined by “and” are separate entries in the source; they are usually repeats but may differ in a detail not shown here. Equal entries are not always repeated.

Tested on: DENV-2 RL strain
Assay: In vivo kinetics study, low viral inoculum (10^2 PFU)
[1] = 0.2 mg/kg/d, day 1 p.i., individual mice
[2] = 0.2 mg/kg/d, day 2 p.i., individual mice
[3] = 0.2 mg/kg/d, day 3 p.i., individual mice
[4] = 0.2 mg/kg/d, day 4 p.i., individual mice
[5] = 0.2 mg/kg/d, day 5 p.i., individual mice
[6] = 2 mg/kg/d, day 1 p.i., individual mice
[7] = 2 mg/kg/d, day 2 p.i., individual mice
[8] = 2 mg/kg/d, day 3 p.i., individual mice
[9] = 2 mg/kg/d, day 4 p.i., individual mice
[10] = 2 mg/kg/d, day 5 p.i., individual mice
[11] = 20 mg/kg/d, day 1 p.i., individual mice
[12] = 20 mg/kg/d, day 2 p.i., individual mice
[13] = 20 mg/kg/d, day 3 p.i., individual mice
[14] = 20 mg/kg/d, day 4 p.i., individual mice
[15] = 20 mg/kg/d, day 5 p.i., individual mice
[16] = JNJ-1802 0.2 mg/kg/d, day 5 p.i., individual mice, 0.2 mg/kg/day

For `COc1cc(N[C@H](C(=O)c2c[nH]c3ccc(OC(F)(F)F)cc23)c2ccc(Cl)cc2OC)cc(S(C)(=O)=O)c1` [JNJ-1802], the “viral load vs vehicle” value (0.2 mg per kg per day b.i.d.) was “No significant reduction in viral load”, the “In vivo kinetics, Mean of Log10” value (0.2 mg/kg/d, day 1 p.i., group mean) was 2.59 Log10 and the “In vivo kinetics, Copies/ml” value [1] was 3.93E+02 Copies/ml. The “In vivo kinetics, Log10 of Copies/ml” value [1] was 2.5940 Log10, the “In vivo kinetics, Copies/ml” value [2] was 3.93E+02 Copies/ml and 5.27E+03 Copies/ml and the “In vivo kinetics, Log10 of Copies/ml” value [2] was 2.5940 Log10 and 3.7220 Log10. The “In vivo kinetics, Mean of Log10” value (0.2 mg/kg/d, day 3 p.i., group mean) was 3.28 Log10, the “In vivo kinetics, Copies/ml” value [3] was 7.26E+03 Copies/ml and 3.93E+02 Copies/ml and 6.17E+04 Copies/ml and the “In vivo kinetics, Log10 of Copies/ml” value [3] was 3.8609 Log10 and 2.5940 Log10 and 3.9537 Log10 and 4.7902 Log10. The “In vivo kinetics, Mean of Log10” value (0.2 mg/kg/d, day 4 p.i., group mean) was 3.19 Log10, the “In vivo kinetics, Copies/ml” value [4] was 3.93E+02 Copies/ml and 1.02E+04 Copies/ml and 4.96E+03 Copies/ml and 2.86E+03 Copies/ml and 9.30E+03 Copies/ml and the “In vivo kinetics, Log10 of Copies/ml” value [4] was 2.5940 Log10 and 4.0085 Log10 and 3.6952 Log10 and 3.4564 Log10 and 3.9686 Log10. The “In vivo kinetics, Mean of Log10” value (0.2 mg/kg/d, day 5 p.i., group mean) was 5.08 Log10, the “In vivo kinetics, Copies/ml” value [5] was 8.17E+04 Copies/ml and 5.79E+05 Copies/ml and 1.02E+05 Copies/ml and the “In vivo kinetics, Log10 of Copies/ml” value [5] was 4.9120 Log10 and 5.7623 Log10 and 4.6527 Log10 and 5.0605 Log10 and 5.0084 Log10. The “In vivo kinetics, Mean of Log10” value (2 mg/kg/d, day 1 p.i., group mean) was 2.59 Log10, the “In vivo kinetics, Copies/ml” value [6] was 3.93E+02 Copies/ml and the “In vivo kinetics, Log10 of Copies/ml” value [6] was 2.5940 Log10. The “In vivo kinetics, Mean of Log10” value (2 mg/kg/d, day 2 p.i., group mean) was 2.59 Log10, the “In vivo kinetics, Copies/ml” value [7] was 3.93E+02 Copies/ml and the “In vivo kinetics, Log10 of Copies/ml” value [7] was 2.5940 Log10. The “In vivo kinetics, Mean of Log10” value (2 mg/kg/d, day 3 p.i., group mean) was 2.77 Log10, the “In vivo kinetics, Copies/ml” value [8] was 3.93E+02 Copies/ml and 6.33E+03 Copies/ml and the “In vivo kinetics, Log10 of Copies/ml” value [8] was 2.5940 Log10 and 3.8013 Log10. The “In vivo kinetics, Mean of Log10” value (2 mg/kg/d, day 4 p.i., group mean) was 2.59 Log10, the “In vivo kinetics, Copies/ml” value [9] was 3.93E+02 Copies/ml and the “In vivo kinetics, Log10 of Copies/ml” value [9] was 2.5940 Log10. The “In vivo kinetics, Mean of Log10” value (2 mg/kg/d, day 5 p.i., group mean) was 2.59 Log10, the “In vivo kinetics, Copies/ml” value [10] was 3.93E+02 Copies/ml and the “In vivo kinetics, Log10 of Copies/ml” value [10] was 2.5940 Log10. The “In vivo kinetics, Mean of Log10” value (20 mg/kg/d, day 1 p.i., group mean) was 2.59 Log10, the “In vivo kinetics, Copies/ml” value [11] was 3.93E+02 Copies/ml and the “In vivo kinetics, Log10 of Copies/ml” value [11] was 2.5940 Log10. The “In vivo kinetics, Mean of Log10” value (20 mg/kg/d, day 2 p.i., group mean) was 2.59 Log10, the “In vivo kinetics, Copies/ml” value [12] was 3.93E+02 Copies/ml and the “In vivo kinetics, Log10 of Copies/ml” value [12] was 2.5940 Log10. For the same compound, the “In vivo kinetics, Mean of Log10” value (20 mg/kg/d, day 3 p.i., group mean) was 2.75 Log10, the “In vivo kinetics, Copies/ml” value [13] was 3.93E+02 Copies/ml and 6.76E+03 Copies/ml and the “In vivo kinetics, Log10 of Copies/ml” value [13] was 2.5940 Log10 and 3.8298 Log10. The “In vivo kinetics, Mean of Log10” value (20 mg/kg/d, day 4 p.i., group mean) was 2.59 Log10, the “In vivo kinetics, Copies/ml” value [14] was 3.93E+02 Copies/ml and the “In vivo kinetics, Log10 of Copies/ml” value [14] was 2.5940 Log10. For the same compound, the “In vivo kinetics, Mean of Log10” value (20 mg/kg/d, day 5 p.i., group mean) was 2.76 Log10, the “In vivo kinetics, Copies/ml” value [15] was 3.93E+02 Copies/ml and 7.90E+03 Copies/ml and the “In vivo kinetics, Log10 of Copies/ml” value [15] was 2.5940 Log10 and 3.8977 Log10. For the same compound, the “effect on body weight” value (20, 2 or 0.2 mg per kg per day b.i.d., 6 days) was “did not affect body weight”, the “mean viral load vs vehicle” value (20 and 2 mg per kg per day b.i.d., on 6 out of 8 days) was “reduced to undetectable levels” and the “In vivo kinetics - viral RNA, Copies/ml” value [16] was 4.57E+04 Copies/ml and 9.46E+04 Copies/ml and 4.38E+05 Copies/ml. For the same compound, the “In vivo kinetics - viral RNA, Log10” value [16] was 4.6597 Log10 and 4.9759 Log10 and 5.6413 Log10 and the “In vivo kinetics - viral RNA, Mean of Log10” value (JNJ-1802 0.2 mg/kg/d, day 6 p.i., group mean) was 4.69 Log10.
